# Measured values as given in patent publication US12617779B2, “Self degradation-type CDK9 inhibitor prodrug and liposome encapsulating same” (Sumitomo Pharma Co., Ltd., priority 2021, dated 2026).
# Columns and labels:
# [1] = Pharmacokinetic test, intravenous solution and liposome formulations in mice (Experimental Example 6); assay type: in vivo; conditions: female BALB/c mice
# Procedure, shortened: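 Solution or liposome formulation (ammonium sulfate-loaded HSPC/cholesterol/PEG-lipid liposomes, outer buffer 10 mM tartrate/10% sucrose pH 4) given IV to 7-week-old female BALB/c mice. Jugular blood sampled without anesthesia up to 24 h (solution) or 72 h (liposome); test compound and Alvocidib in plasma measured by LC-MS/MS.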
# [2] = Evaluation of conversion rate to active form in buffer solution (Experimental Example 1); assay type: physicochemical; conditions: for Production rate of Alvocidib / Residual rate: 25 umol/L in buffer solution; for Stability in buffer solution at pH 5: pH 5, 37° C., up to 2 or 3 hours; for Conversion to Alvocidib at pH 7.4: pH 7.4, 37° C., up to 3 hours
# Procedure, shortened: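 Conversion to Alvocidib was followed by HPLC over 3 hours at 37° C, with test compounds at 25 umol/L in 50 mM citrate or phosphate buffers spanning pH 5.0–7.4.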
smiles,measurement,setting,value
"CCCN(C[C@@H]1CCCCN1)C(=O)Oc1cc(O)c2c(=O)cc(-c3ccccc3Cl)oc2c1[C@H]1CCN(C)C[C@H]1O [Example 5, 2-(2-chlorophenyl)-5-hydroxy-8-[(3S,4R)-3-hydroxy-1-methylpiperidin-4-yl]-4-oxo-4H-1-benzopyran-7-yl {[(2S)-piperidin-2-yl]methyl}propylcarbamate]",Blood retention of liposome formulation compared with the corresponding solution formulation,[1],higher blood retention
same,Efficiency of conversion to Alvocidib,"[2]; buffer solution, 37° C.",higher efficiency
same,Production rate of Alvocidib,"[2]; pH5.0, 0 hr, 37° C.",0.0%
same,Residual rate,"[2]; pH5.0, 0 hr, 37° C.",98.7%
same,Stability in buffer solution at pH 5,[2],stable
same,Production rate of Alvocidib,"[2]; pH5.0, 0.5 hr, 37° C.",0.6%
same,Residual rate,"[2]; pH5.0, 0.5 hr, 37° C.",98.3%
same,Production rate of Alvocidib,"[2]; pH5.0, 1 hr, 37° C.",1.1%
same,Residual rate,"[2]; pH5.0, 1 hr, 37° C.",97.8%
same,Production rate of Alvocidib,"[2]; pH5.0, 2 hr, 37° C.",2.3%
same,Residual rate,"[2]; pH5.0, 2 hr, 37° C.",96.7%
same,Production rate of Alvocidib,"[2]; pH5.0, 3 hr, 37° C.",3.4%
same,Residual rate,"[2]; pH5.0, 3 hr, 37° C.",95.8%
same,Production rate of Alvocidib,"[2]; pH5.5, 0 hr, 37° C.",0.0%
same,Residual rate,"[2]; pH5.5, 0 hr, 37° C.",98.3%
same,Production rate of Alvocidib,"[2]; pH5.5, 0.5 hr, 37° C.",1.2%
same,Residual rate,"[2]; pH5.5, 0.5 hr, 37° C.",97.2%
same,Production rate of Alvocidib,"[2]; pH5.5, 1 hr, 37° C.",2.1%
same,Residual rate,"[2]; pH5.5, 1 hr, 37° C.",96.4%
same,Production rate of Alvocidib,"[2]; pH5.5, 2 hr, 37° C.",3.9%
same,Residual rate,"[2]; pH5.5, 2 hr, 37° C.",94.5%
same,Production rate of Alvocidib,"[2]; pH5.5, 3 hr, 37° C.",5.7%
same,Residual rate,"[2]; pH5.5, 3 hr, 37° C.",92.7%
same,Production rate of Alvocidib,"[2]; pH6.0, 0 hr, 37° C.",0.0%
same,Residual rate,"[2]; pH6.0, 0 hr, 37° C.",98.7%
same,Production rate of Alvocidib,"[2]; pH6.0, 0.5 hr, 37° C.",3.6%
same,Residual rate,"[2]; pH6.0, 0.5 hr, 37° C.",95.2%
same,Production rate of Alvocidib,"[2]; pH6.0, 1 hr, 37° C.",6.6%
same,Residual rate,"[2]; pH6.0, 1 hr, 37° C.",92.2%
same,Production rate of Alvocidib,"[2]; pH6.0, 2 hr, 37° C.",12.8%
same,Residual rate,"[2]; pH6.0, 2 hr, 37° C.",85.7%
same,Production rate of Alvocidib,"[2]; pH6.0, 3 hr, 37° C.",18.6%
same,Residual rate,"[2]; pH6.0, 3 hr, 37° C.",79.8%
same,Production rate of Alvocidib,"[2]; pH6.5, 0 hr, 37° C.",0.0%
same,Residual rate,"[2]; pH6.5, 0 hr, 37° C.",98.4%
same,Production rate of Alvocidib,"[2]; pH6.5, 0.5 hr, 37° C.",9.5%
same,Residual rate,"[2]; pH6.5, 0.5 hr, 37° C.",88.9%
same,Production rate of Alvocidib,"[2]; pH6.5, 1 hr, 37° C.",17.1%
same,Residual rate,"[2]; pH6.5, 1 hr, 37° C.",80.9%
same,Production rate of Alvocidib,"[2]; pH6.5, 2 hr, 37° C.",32.1%
same,Residual rate,"[2]; pH6.5, 2 hr, 37° C.",65.5%
same,Production rate of Alvocidib,"[2]; pH6.5, 3 hr, 37° C.",44.2%
same,Residual rate,"[2]; pH6.5, 3 hr, 37° C.",52.6%
same,Production rate of Alvocidib,"[2]; pH7.0, 0 hr, 37° C.",0.0%
same,Residual rate,"[2]; pH7.0, 0 hr, 37° C.",98.4%
same,Production rate of Alvocidib,"[2]; pH7.0, 0.5 hr, 37° C.",25.0%
same,Residual rate,"[2]; pH7.0, 0.5 hr, 37° C.",72.7%
same,Production rate of Alvocidib,"[2]; pH7.0, 1 hr, 37° C.",41.9%
same,Residual rate,"[2]; pH7.0, 1 hr, 37° C.",55.0%
same,Production rate of Alvocidib,"[2]; pH7.0, 2 hr, 37° C.",66.7%
same,Residual rate,"[2]; pH7.0, 2 hr, 37° C.",28.7%
same,Production rate of Alvocidib,"[2]; pH7.0, 3 hr, 37° C.",79.9%
same,Residual rate,"[2]; pH7.0, 3 hr, 37° C.",15.0%
same,Production rate of Alvocidib,"[2]; pH7.4, 0 hr, 37° C.",0.0%
same,Residual rate,"[2]; pH7.4, 0 hr, 37° C.",98.7%
same,Conversion to Alvocidib at pH 7.4,[2],rapidly converted to Alvocidib
same,Production rate of Alvocidib,"[2]; pH7.4, 0.5 hr, 37° C.",47.5%
same,Residual rate,"[2]; pH7.4, 0.5 hr, 37° C.",49.4%
same,Production rate of Alvocidib,"[2]; pH7.4, 1 hr, 37° C.",69.8%
same,Residual rate,"[2]; pH7.4, 1 hr, 37° C.",25.9%
same,Production rate of Alvocidib,"[2]; pH7.4, 2 hr, 37° C.",88.9%
same,Residual rate,"[2]; pH7.4, 2 hr, 37° C.",5.9%
same,Production rate of Alvocidib,"[2]; pH7.4, 3 hr, 37° C.",93.2%
same,Residual rate,"[2]; pH7.4, 3 hr, 37° C.",1.5%
"CCCN(C[C@H]1CCCCN1)C(=O)Oc1cc(O)c2c(=O)cc(-c3ccccc3Cl)oc2c1[C@H]1CCN(C)C[C@H]1O [Example 6, 2-(2-chlorophenyl)-5-hydroxy-8-[(3S,4R)-3-hydroxy-1-methylpiperidin-4-yl]-4-oxo-4H-1-benzopyran-7-yl {[(2R)-piperidin-2-yl]methyl}propylcarbamate]",Blood retention of liposome formulation compared with the corresponding solution formulation,[1],higher blood retention
same,Production rate of Alvocidib,"[2]; pH5.0, 0 hr, 37° C.",0.5%
same,Residual rate,"[2]; pH5.0, 0 hr, 37° C.",99.3%
same,Stability in buffer solution at pH 5,[2],stable
same,Production rate of Alvocidib,"[2]; pH5.0, 0.5 hr, 37° C.",0.9%
same,Residual rate,"[2]; pH5.0, 0.5 hr, 37° C.",99.1%
same,Production rate of Alvocidib,"[2]; pH5.0, 1 hr, 37° C.",1.3%
same,Residual rate,"[2]; pH5.0, 1 hr, 37° C.",98.7%
same,Production rate of Alvocidib,"[2]; pH5.0, 2 hr, 37° C.",2.0%
same,Residual rate,"[2]; pH5.0, 2 hr, 37° C.",97.8%
same,Production rate of Alvocidib,"[2]; pH5.0, 3 hr, 37° C.",2.6%
same,Residual rate,"[2]; pH5.0, 3 hr, 37° C.",96.8%
same,Production rate of Alvocidib,"[2]; pH5.5, 0 hr, 37° C.",0.5%
same,Residual rate,"[2]; pH5.5, 0 hr, 37° C.",99.5%
same,Production rate of Alvocidib,"[2]; pH5.5, 0.5 hr, 37° C.",1.6%
same,Residual rate,"[2]; pH5.5, 0.5 hr, 37° C.",98.1%
same,Production rate of Alvocidib,"[2]; pH5.5, 1 hr, 37° C.",2.5%
same,Residual rate,"[2]; pH5.5, 1 hr, 37° C.",97.0%
same,Production rate of Alvocidib,"[2]; pH5.5, 2 hr, 37° C.",4.3%
same,Residual rate,"[2]; pH5.5, 2 hr, 37° C.",94.2%
same,Production rate of Alvocidib,"[2]; pH5.5, 3 hr, 37° C.",6.2%
same,Residual rate,"[2]; pH5.5, 3 hr, 37° C.",91.9%
same,Production rate of Alvocidib,"[2]; pH6.0, 0 hr, 37° C.",0.6%
same,Residual rate,"[2]; pH6.0, 0 hr, 37° C.",99.4%
same,Production rate of Alvocidib,"[2]; pH6.0, 0.5 hr, 37° C.",4.0%
same,Residual rate,"[2]; pH6.0, 0.5 hr, 37° C.",94.8%
same,Production rate of Alvocidib,"[2]; pH6.0, 1 hr, 37° C.",7.1%
same,Residual rate,"[2]; pH6.0, 1 hr, 37° C.",90.7%
same,Production rate of Alvocidib,"[2]; pH6.0, 2 hr, 37° C.",13.2%
same,Residual rate,"[2]; pH6.0, 2 hr, 37° C.",82.5%
same,Production rate of Alvocidib,"[2]; pH6.0, 3 hr, 37° C.",18.6%
same,Residual rate,"[2]; pH6.0, 3 hr, 37° C.",75.2%
same,Production rate of Alvocidib,"[2]; pH6.5, 0 hr, 37° C.",0.6%
same,Residual rate,"[2]; pH6.5, 0 hr, 37° C.",99.4%
same,Production rate of Alvocidib,"[2]; pH6.5, 0.5 hr, 37° C.",10.1%
same,Residual rate,"[2]; pH6.5, 0.5 hr, 37° C.",86.6%
same,Production rate of Alvocidib,"[2]; pH6.5, 1 hr, 37° C.",18.6%
same,Residual rate,"[2]; pH6.5, 1 hr, 37° C.",75.3%
same,Production rate of Alvocidib,"[2]; pH6.5, 2 hr, 37° C.",31.9%
same,Residual rate,"[2]; pH6.5, 2 hr, 37° C.",56.9%
same,Production rate of Alvocidib,"[2]; pH6.5, 3 hr, 37° C.",42.8%
same,Residual rate,"[2]; pH6.5, 3 hr, 37° C.",42.3%
same,Production rate of Alvocidib,"[2]; pH7.0, 0 hr, 37° C.",0.7%
same,Residual rate,"[2]; pH7.0, 0 hr, 37° C.",99.3%
same,Production rate of Alvocidib,"[2]; pH7.0, 0.5 hr, 37° C.",27.0%
same,Residual rate,"[2]; pH7.0, 0.5 hr, 37° C.",63.7%
same,Production rate of Alvocidib,"[2]; pH7.0, 1 hr, 37° C.",44.4%
same,Residual rate,"[2]; pH7.0, 1 hr, 37° C.",40.4%
same,Production rate of Alvocidib,"[2]; pH7.0, 2 hr, 37° C.",62.8%
same,Residual rate,"[2]; pH7.0, 2 hr, 37° C.",16.1%
same,Production rate of Alvocidib,"[2]; pH7.0, 3 hr, 37° C.",69.8%
same,Residual rate,"[2]; pH7.0, 3 hr, 37° C.",6.8%
same,Production rate of Alvocidib,"[2]; pH7.4, 0 hr, 37° C.",0.9%
same,Residual rate,"[2]; pH7.4, 0 hr, 37° C.",99.1%
same,Conversion to Alvocidib at pH 7.4,[2],rapidly converted to Alvocidib
same,Production rate of Alvocidib,"[2]; pH7.4, 0.5 hr, 37° C.",47.8%
same,Residual rate,"[2]; pH7.4, 0.5 hr, 37° C.",36.3%
same,Production rate of Alvocidib,"[2]; pH7.4, 1 hr, 37° C.",65.7%
same,Residual rate,"[2]; pH7.4, 1 hr, 37° C.",12.7%
same,Production rate of Alvocidib,"[2]; pH7.4, 2 hr, 37° C.",73.6%
same,Residual rate,"[2]; pH7.4, 2 hr, 37° C.",2.7%
same,Production rate of Alvocidib,"[2]; pH7.4, 3 hr, 37° C.",75.3%
same,Residual rate,"[2]; pH7.4, 3 hr, 37° C.",0.7%
